In patent publication US9605027B2, “Polypeptides that bound to IL-23 receptor and inhibit binding of IL-23 and cell signaling thereof” (Medical Diagnostic Laboratories, LLC, priority 2011, dated 2017):

Molecular target: T1, mouse IL-23R (Mus musculus, UniProt Q8K4B4)
T1 sequence (Q8K4B4 24-644): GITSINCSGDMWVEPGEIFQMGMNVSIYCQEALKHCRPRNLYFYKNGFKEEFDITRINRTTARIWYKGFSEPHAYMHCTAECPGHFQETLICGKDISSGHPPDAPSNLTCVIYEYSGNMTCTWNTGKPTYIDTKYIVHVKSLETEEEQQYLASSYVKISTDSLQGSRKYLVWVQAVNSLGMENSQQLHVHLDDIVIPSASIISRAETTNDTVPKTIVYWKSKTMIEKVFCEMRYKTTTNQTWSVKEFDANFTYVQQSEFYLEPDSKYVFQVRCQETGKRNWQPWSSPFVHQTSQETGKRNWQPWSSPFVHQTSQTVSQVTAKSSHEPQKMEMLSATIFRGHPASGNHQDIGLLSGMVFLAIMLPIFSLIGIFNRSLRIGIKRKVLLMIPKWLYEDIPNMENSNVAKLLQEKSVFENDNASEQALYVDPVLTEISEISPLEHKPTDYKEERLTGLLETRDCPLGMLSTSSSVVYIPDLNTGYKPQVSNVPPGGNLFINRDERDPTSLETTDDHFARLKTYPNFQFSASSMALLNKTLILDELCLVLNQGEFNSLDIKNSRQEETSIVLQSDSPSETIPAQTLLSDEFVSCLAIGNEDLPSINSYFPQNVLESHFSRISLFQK
Test: Competitive mouse ELISA, mouse IL-23 binding to mouse IL-23R
Conditions: mouse IL-23 / mouse IL-23R-Fc; read-out: IC50, Competitive ELISA in mouse system
Description: In this study, we tested if the cyclic polypeptide no. 23.15, cyclic polypeptide no. 23.19 and the isolated polypeptide 23.15-Fc fusion protein could inhibit binding of mouse IL-23 to mouse IL-23R. Mouse IL-23 (p19 Gene Accession #: NM_031252; p40 Gene Accession #: NM_008352), the sequence of which is incorporated herein by reference. Mouse IL-23R (Gene Accession #: NM_144548), the sequence of which is incorporated herein by reference. To do so, we performed the Competitive ELISA.
FIG. 46 is a schematic depiction of the Competitive ELISA in mouse. Recombinant mouse IL-23R-Fc (2 μg/ml) was coated onto microtiter plates as a capture reagent. Mouse IL-23 and polypeptide or isolated peptide-Fc fusion protein were added to compete for binding to the immobilized mouse IL-23R-Fc. Mouse IL-23 that bound to mouse IL-23R-Fc was detected using biotinylated anti-p40 antibody (1:250). The bound anti-p40 antibody was detected using streptavidin-horseradish peroxidase (HRP) (1:500) and 100 μl/well of a tetramethylbenzidine (TMB) substrate was added to measure peroxidase activity. The color was measured at optical density (OD) 450nm. The color intensity was directly proportional to the amount of the bound mouse IL-23 protein.
The isolated polypeptide no. 23.15-Fc fusion protein, cyclic polypeptide no. 23.19 and polypeptide no. […] The IC50 values were calculated.

CSCC[C@@H]1NC(=O)[C@H](C)NC(=O)[C@@H](N)CSSC[C@@H](C(=O)O)NC(=O)[C@H](CCCNC(=N)N)NC(=O)CNC(=O)[C@H](Cc2ccc(O)cc2)NC(=O)[C@H](CC(C)C)NC(=O)[C@H](Cc2c[nH]c3ccccc23)NC(=O)[C@H](Cc2ccc(O)cc2)NC(=O)[C@H](CC(=O)O)NC(=O)[C@H](CCC(N)=O)NC(=O)[C@H](Cc2c[nH]c3ccccc23)NC(=O)[C@H]([C@@H](C)O)NC1=O [23.19] was tested, and the IC50 was 12.5 µM.
